# Test results as given in patent publication US20260043020A1, “BINDING MEMBERS WITH ALTERED DIVERSITY SCAFFOLD DOMAINS” (priority 2016, published 2026).
# Target: T1, trypsin (Bos taurus, UniProt P00760)
# T1 construct: gene PRSS1
# T1 sequence (P00760 24-246): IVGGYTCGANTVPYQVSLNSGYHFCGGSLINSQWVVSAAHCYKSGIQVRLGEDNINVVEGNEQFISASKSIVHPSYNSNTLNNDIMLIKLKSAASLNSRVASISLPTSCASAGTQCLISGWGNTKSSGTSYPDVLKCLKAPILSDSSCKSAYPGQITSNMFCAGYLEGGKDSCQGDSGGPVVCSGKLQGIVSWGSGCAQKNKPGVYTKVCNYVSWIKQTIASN
# Experiment: Polyclonal phage TRF binding assay on trypsin
# Settings: phage display; direct gene-III fusion or round-2 polyclonal phage
# Experimental: Phage display technology facilitates isolation of binders to any given target from large combinatorial repertoires based on proteins and peptides that can be presented on the surface of filamentous phage^105. In order to isolate functional knottin-antibody fusions from the KnotBody libraries multiple rounds of phage display selections on trypsin (cognate antigen for the EETI-II donor) were carried out. Phage particles were prepared by rescuing KnotBody libraries using trypsin cleavable helper phage^102,106Two rounds of phage display selections were performed on 10 μg/ml biotinylated trypsin immobilised on Streptavidin (for Round-1) or Neutravidin (for round-2) coated Maxisorp™ immunotubes (Thermo Scientific, Cat No. 444202). In both rounds of selection, phage libraries were pre-incubated with streptavidin coated paramagnetic beads (Thermo Fisher Scientific, Cat. No. 11205D). […] Polyclonal phage preparations from round-2 selection outputs were analysed for trypsin binding using a time resolved fluorescence (TRF) binding assay. In this assay, polyclonal phage binding to biotinylated trypsin immobilised on neutravidin (Thermo Fisher Scientific, Cat. No 31000) coated Maxisorp™ plates (Thermo Scientific, Cat. No. 437111) was detected using a mouse anti-M13 antibody (GE Healthcare, Cat. No. 27-9420-01) followed by europium conjugated anti-mouse antibody (Perkin Elmer, Cat. No. AD0124). […]
substance,measurement,value
EETI-II,phage binding to trypsin,no detectable binding
